Test system: mice
Experiment: Passive avoidance test (scopolamine-induced memory decline)
Type: in vivo, mouse
Details: scopolamine 1 mg/kg; for Retention time: measured up to 300 seconds
Procedure: Passive avoidance test was performed to identify the memory improvement effect of the above 8 oleanolic acid saponin or hederagenin saponin substances in the body. Also, oleanolic acid and hederagenin, aglycons of the saponin compounds, were included in the test. A shuttle box measuring 50 cm×15 cm×40 cm was used. The box was divided into two compartments by a guillotine door. One compartment was brightly illuminated and the other was covered by black cloth. A mouse was placed in the illuminated compartment. Then, when the guillotine door was open, the mouse moved into the dark compartment within 20 seconds because it prefers darkness. The guillotine door was closed automatically as soon as the mouse entered the dark compartment. In this way, the latency time, or the time that elapsed until a mouse left the illuminated compartment and entered the dark compartment, was determined. On the first day, this training trial was performed until all the mice entered the dark compartment within 20 seconds. On the following day, the trained mice were placed in the illuminated compartment, one at a time, and were allowed to move into the dark compartment. When the mice entered the dark compartment, a foot-shock (0.8 mA, 3 seconds) was delivered through the electronic grid equipped on the floor of the dark compartment. 24 hours after this acquisition trial, the mice were placed in the illuminated compartment and were allowed to move into the dark compartment. Then, normal mice hesitated to move into the dark compartment remembering the shock of the day before. The time elapsed until the mice entered the dark compartment was measured up to 300 seconds. Retention time was measured to evaluate the memory improvement effect. Neither scopolamine nor the drug was administered to the control group. Scopolamine (1 mg/kg), which is known to decline memory function by inhibiting the transfer of neurotransmitters, was administered. An hour later, saponin (30 mg/kg) and aglycon (30 mg/kg), […] (donepezil, 1 mg/kg, positive control) and water (negative control) were administered.

[1] = saponin or aglycon 30 mg/kg administered once orally 1 hour later, 24 hours after acquisition trial
[2] = saponin or aglycon 30 mg/kg 1 hour later

| Molecule | Retention time [1] [s] | further results |
| --- | --- | --- |
| COc1cc2c(cc1OC)C(=O)C(CC1CCN(Cc3ccccc3)CC1)C2 (centres unmarked) [Aricept, donepezil, reference compound] | – | times longer retention time than the negative control group (water) (Aricept 1 mg/kg orally 1 hour later): 1.6 times; Retention time (Aricept (donepezil) 1 mg/kg orally 1 hour later, positive control): 98.5 ± 10.6 s |
| CC1OC(OC2C(OCC3OC(OC(=O)C45CCC(C)(C)CC4C4=CCC6C7(C)CCC(OC8OCC(O)C(O)C8OC8OC(C)C(O)C(O)C8O)C(C)(CO)C7CCC6(C)C4(C)CC5)C(O)C(O)C3O)OCC(O)C2O)C(O)C(O)C1O [Loniceroside B, 3-O-α-L-Rhamnopyranosyl(1→2)-α-L-arabinopyranosylhederagenin-28-O-α-L-rhamnopyranosyl(1→2)-β-D-xylopyranosyl(1→6)-β-D-glucopyranosyl ester] | 169.7 ± 25.4 | – |
| 3-O-β-D-Xylopyranosyl(1→2)-β-D-galactopyranosyl(1→3)-β-D-glucolopyranosyloleanolic acid [Elatoside A] | 166.0 ± 24.8 | – |
| 3-O-β-D-Xylopyranosyl(1→2)-β-D-galactopyranosyl(1→3)-β-D-glucolopyranosyloleanolic acid-28-O-β-D-glucopyranosyl ester [Elatoside C] | 160.1 ± 15.6 | – |
| CC1(C)CC[C@]2(C(=O)O)CC[C@]3(C)C(=CC[C@@H]4[C@@]5(C)CC[C@H](O)C(C)(C)[C@@H]5CC[C@]43C)[C@@H]2C1 [Oleanolic acid, oleanolic acid, reference compound] | 149.4 ± 19.7 | times longer retention time than the negative control group (water) [2]: 2.4 times |
| C[C@@H]1O[C@@H](O[C@H]2[C@H](O[C@H]3CC[C@]4(C)[C@H]5CC=C6[C@@H]7CC(C)(C)CC[C@]7(C(=O)O[C@@H]7O[C@H](CO[C@@H]8O[C@H](CO)[C@@H](O[C@@H]9O[C@@H](C)[C@H](O)[C@@H](O)[C@H]9O)[C@H](O)[C@H]8O)[C@@H](O)[C@H](O)[C@H]7O)CC[C@@]6(C)[C@]5(C)CC[C@H]4C3(C)C)OC[C@H](O)[C@@H]2O)[C@H](O)[C@H](O)[C@H]1O [Hederasaponin B, 3-O-α-L-Rhamnopyranosyl(1→2)-α-L-arabinopyranosyloleanolic acid-28-O-α-L-rhamnopyranosyl(1→4)-β-D-glucopyranosyl(1→6)-β-D-glucopyranosyl ester] | 172.3 ± 29.1 | – |
| C[C@@H]1O[C@@H](O[C@H]2[C@H](O[C@H]3CC[C@]4(C)[C@H]5CC=C6[C@@H]7CC(C)(C)CC[C@]7(C(=O)O)CC[C@@]6(C)[C@]5(C)CC[C@H]4C3(C)C)OC[C@H](O)[C@@H]2O)[C@H](O)[C@H](O)[C@H]1O [Eleutheroside K, 3-O-α-L-Rhamnopyranosyl(1→2)-α-L-arabinopyranosyloleanolic acid] | 182.6 ± 15.9 | – |
| CC1OC(OC2C(CO)OC(OCC3OC(OC(=O)C45CCC(C)(C)CC4C4=CCC6C7(C)CCC(OC8OCC(OC9OC(CO)C(O)C(O)C9OC9OC(C)C(O)C(O)C9O)C(O)C8O)C(C)(C)C7CCC6(C)C4(C)CC5)C(O)C(O)C3O)C(O)C2O)C(O)C(O)C1O [Hederacolchiside E, 3-O-α-L-Rhamnopyranosyl(1→2)-β-D-glucopyranosyl(1→4)-α-L-arabinopyranosyloleanolic acid-28-O-α-L-rhamnopyranosyl(1→4)-β-D-glucopyranosyl(1→6)-β-D-glucopyranosyl ester] | 155.7 ± 31.2 | – |
| C[C@@H]1O[C@@H](O[C@H]2[C@H](OC[C@H]3O[C@@H](OC(=O)[C@]45CCC(C)(C)C[C@H]4C4=CC[C@@H]6[C@@]7(C)CC[C@H](O[C@@H]8OC[C@H](O)[C@H](O)[C@H]8O)[C@@](C)(CO)[C@@H]7CC[C@@]6(C)[C@]4(C)CC5)[C@H](O)[C@@H](O)[C@@H]3O)OC[C@@H](O)[C@@H]2O)[C@H](O)[C@H](O)[C@H]1O [Loniceroside A, 3-O-α-L-Arabinopyranosylhederagenin-28-O-α-L-rhamnopyranosyl(1→2)-β-D-xylopyranosyl(1→6)-β-D-glucopyranosyl ester] | 175.3 ± 21.1 | – |
| C[C@@H]1O[C@@H](O[C@H]2[C@H](O[C@H]3CC[C@@]4(C)[C@@H](CC[C@]5(C)[C@@H]4CC=C4[C@@H]6CC(C)(C)CC[C@]6(C(=O)O[C@@H]6O[C@H](CO[C@@H]7O[C@H](CO)[C@@H](O[C@@H]8O[C@@H](C)[C@H](O)[C@@H](O)[C@H]8O)[C@H](O)[C@H]7O)[C@@H](O)[C@H](O)[C@H]6O)CC[C@]45C)[C@]3(C)CO)OC[C@H](O)[C@@H]2O)[C@H](O)[C@H](O)[C@H]1O [Kalopanaxsaponin B, 3-O-α-L-Rhamnopyranosyl(1→2)-α-L-arabinopyranosylhederagenin-28-O-α-L-rhamnopyranosyl(1→4)-β-D-glucopyranosyl(1→6)-β-D-glucopyranosyl ester] | 170.5 ± 24.6 | – |
| CC1(C)CC[C@]2(C(=O)O)CC[C@]3(C)C(=CC[C@@H]4[C@@]5(C)CC[C@H](O)[C@@](C)(CO)[C@@H]5CC[C@]43C)[C@@H]2C1 [Hederagenin, hederagenin, reference compound] | 142.8 ± 32.6 | times longer retention time than the negative control group (water) [2]: 2.3 times |

Reference: patent publication US20100190968A1, “OLEANANE TRITERPENE SAPONIN COMPOUNDS WHICH ARE EFFECTIVE ON TREATMENT OF DEMENTIA AND MILD COGNITIVE IMPAIRMENT (MCI) AND IMPROVEMENT OF COGNITIVE FUNCTION” (priority 2006, published 2010)
